Results taken from patent US20190322676A1, “CERAMIDE GALACTOSYLTRANSFERASE INHIBITORS FOR THE TREATMENT OF DISEASE” (BioMarin Pharmaceutical Inc., priority 2016, published 2019).
Where a name gives a salt, the structure may show the parent alone.

Columns and labels:
Type in all cases: biochemical
[1] = biological target: T1, human CGT (ceramide galactosyltransferase), CHO/CGT lysate (Homo sapiens, UniProt Q16880); assay: CGT enzyme assay, LC-MS/MS readout (Table 1 ranges without asterisk); details: LC-MS/MS method (range without asterisk)
T1 construct: Full-length human CGT cDNA was cloned into the BamH1/Xho1 site of pcDNA3.1 (+); expressed in transfected cells; host or cells: Chinese hamster ovary (CHO) cells; lysate prepared with M-PER
T1 sequence (Q16880 21-541): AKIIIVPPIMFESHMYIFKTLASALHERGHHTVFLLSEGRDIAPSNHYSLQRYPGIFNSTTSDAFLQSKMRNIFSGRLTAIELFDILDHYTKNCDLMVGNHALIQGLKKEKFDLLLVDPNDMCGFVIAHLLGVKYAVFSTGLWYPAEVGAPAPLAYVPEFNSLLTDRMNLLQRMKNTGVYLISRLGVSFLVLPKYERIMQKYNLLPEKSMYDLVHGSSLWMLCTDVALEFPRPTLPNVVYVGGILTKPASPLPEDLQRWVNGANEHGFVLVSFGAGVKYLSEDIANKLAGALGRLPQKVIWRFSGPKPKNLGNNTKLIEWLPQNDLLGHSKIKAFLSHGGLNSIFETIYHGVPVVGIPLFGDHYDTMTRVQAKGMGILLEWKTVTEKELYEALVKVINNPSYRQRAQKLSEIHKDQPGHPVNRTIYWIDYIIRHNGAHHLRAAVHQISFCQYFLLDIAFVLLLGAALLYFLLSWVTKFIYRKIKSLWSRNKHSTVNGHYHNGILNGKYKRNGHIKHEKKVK
Method in brief: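 Lysate of CHO cells transfected with full-length human CGT incubated 1 h at 37 °C with compound (0.001–50 μM) in HEPES pH 7.2 with 17.5 μM UDP-galactose and C12:0 (2R-OH) ceramide substrate, 0.5% DMSO, no Tween 80. Galactosylceramide product quantified by LC-MS/MS against C12 ceramide internal standard; IC50 calculated.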

[2] = biological target: T1, human CGT (ceramide galactosyltransferase), CHO/CGT lysate; assay: CGT enzyme assay, RapidFire/MS/MS readout (Table 1 ranges with one asterisk *); details: RapidFire method (range with one asterisk *)
Method in brief: (§1)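 IC50s come from variable-slope dose-response fits of internal-standard-normalized C6-NBD-dihydro-galactosylceramide, measured by RapidFire/MS/MS (ESI negative). Reactions: 1 h, 37 °C, human CGT-expressing CHO lysate (4 μg), 0.001–50 μM compound, 10 μM NBD-dihydro-ceramide, 17.5 μM UDP-galactose, 0.5% DMSO, pH 7.2; 0.01% Tween 80 added for ** values.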

[3] = biological target: T1, human CGT (ceramide galactosyltransferase), CHO/CGT lysate; assay: CGT enzyme assay, RapidFire/MS/MS readout with 0.01% Tween added (Table 1 ranges with two asterisks **); details: CGT enzyme assay, RapidFire/MS/MS method with 0.01% Tween added (range with two asterisks **)
Method in brief: as §1

SMILES | IC50 [1] [µM] | IC50 [2] [µM] | IC50 [3] [µM]
NC1CC2CCC(C1)N2C(=O)[C@@H](NS(=O)(=O)c1ccc2cc(OC3CCCC3)ccc2c1)C(F)(F)c1ccc(Br)cc1 (stereo partly drawn) [Compound 5-1, N-((2R)-3-(3-amino-8-azabicyclo[3.2.1]octan-8-yl)-1-(4-bromophenyl)-1,1-difluoro-3-oxopropan-2-yl)-6-(cyclopentyloxy)naphthalene-2-sulfonamide] | < 1 | < 1 | < 1
CC(C)Oc1ccc2cc(S(=O)(=O)N[C@H](C(=O)N3C4CCC3CC(N)C4)C(F)(F)c3ccc(Cl)cc3)ccc2c1 (stereo partly drawn) [Compound 8-1, N-((2R)-3-(3-amino-8-azabicyclo[3.2.1]octan-8-yl)-1-(4-chlorophenyl)-1,1-difluoro-3-oxopropan-2-yl)-6-isopropoxynaphthalene-2-sulfonamide trifluoroacetate] | 1 to 10 | 1 to 10 | 
CC(C)Oc1ccc2cc([C@@H](O)C(=O)N[C@@H](C(=O)N3C4CCC3CC(N)C4)C(F)(F)c3ccc(Br)cc3)ccc2c1 (stereo partly drawn) [Compound 19-4, (2R)—N-((2S)-3-(3-amino-8-azabicyclo[3.2.1]octan-8-yl)-1-(4-bromophenyl)-1,1-difluoro-3-oxopropan-2-yl)-2-hydroxy-2-(6-isopropoxynaphthalen-2-yl)acetamide trifluoroacetate] | 30 to 100 | 30 to 100 | 
